Source: patent publication US9908919B2, “Cyclic apelin derivatives for the treatment of heart failure” (priority 2013, dated 2018)
Where a SMILES comes first, the peptide text is derived from it.

Assays:
[1] = rat
Protocol: (§1) The calcium flux protocol described above was followed, with the following changes. The peptides were also incubated with 5% rat plasma (Bioreclamation # [sequence]-M, Na Heparin-treated). Readings were taken at time points t0 and t24 hrs, after incubation in a 37° C. tissue culture incubator. Peptide plasma half-life in minutes was estimated by calculating the following: • 1) LN((EC50 at t0)/(EC50 at t24 hrs)), • 2) Calculate slope of value above and • 3) t112=0.693/(slope^2).

[2] = in vitro; conditions: rat, plasma
Protocol: as §1

[3] = Plasma stability assay (LC-MS); assay type: in vitro ADME; conditions: male, Sprague-Dawley; Table 3; heparinized rat plasma, 37° C., LC-MS percent remaining; read-out: Plasma stability t½
Protocol: Working solution: 1 mg/mL test article is prepared in Milli-Q water
Extraction solution: Methanol:Acetonitrile:Water (1:1:1) with 0.1% Formic Acid and 400 ng/mL Glyburide.
Plasma: Male Sprague-Dawley rat plasma (with sodium heparin), purchased from Bioreclamation LLC (Liverpool, N.Y.).
Test article was prepared in one of the following biological matrices: heparinized rat plasma, heparinized rat whole blood or lung homogenate. The plasma and whole blood sample was prepared at 5000 ng/mL by adding 5 uL of 1 mg/mL Working solution to 995 uL of rat plasma or whole blood. Lung homogenate samples were prepared by diluting lung homogenate to 1 mg/ml protein concentration with phosphate buffered saline (PBS), followed by addition of 5 uL Working solution to 995 uL diluted lung homogenate. The samples were incubated at 37° C. with gentle shaking (65˜75 rpm) in a water bath incubator. At times 0 min, 5 min, 15 min, 30 min, 60 min, 120 and 240 min, 25 uL aliquots of incubation samples were transferred to 96-well plate and immediately protein precipitated using 150 uL of Extraction solution. After completion of incubation experiment, the sample plate was centrifuged at 4000 rpm at 4° C. for 10 minutes. Afterwards, a pipetting device (Tecan Temo) was used to transfer the supernatants to another plate and add 50 uL of water to all samples. The plate was vortexed prior to LC-MS analysis. […]

Surrogate Activity based Plasma stability t½ [1]: >16.67 h | half-life [2]: > 16.7 h | half-life at 5000 ng/mL [3]: 2.42 h
Structure (SMILES): CCCC[C@@H]1NC(=O)[C@@H]2CCCN2C(=O)CNC(=O)[C@H](CCCCN)NC(=O)[C@H](Cc2c[nH]cn2)NC(=O)[C@@H](NC(=O)[C@H](CC(C)C)NC(=O)[C@H](CCCNC(=N)N)NC(=O)[C@@H]2CCCN2C(=O)[C@H](CCCNC(=N)N)NC(=O)[C@@H]2CCC(=O)N2)CSSC[C@@H](C(=O)O)NC(=O)[C@@H]2CCCN2C1=O [Example 8, pE-R-P-R-L-C*-H-K-G-P-Nle-P-C*-OH] (HELM PEPTIDE1{[Glp].R.P.R.L.C.H.K.G.P.[Nle].P.C}$PEPTIDE1,PEPTIDE1,6:R3-13:R3$$$V2.0)
